The results in this text go back to the Kinase Knowledgebase extract (Sharma et al. 2016).

This test concerns the target CDK2 (human) (UniProt P24941). As to the kind of experiment: Enzyme Assay.

Molecules are shown by their SMILES.

Take `CC(C)n1nnc2c(NCc3ccccc3)nc(NCCCO)nc21`: the IC50 came out at 100 µM.
The value for `CCCCCCNc1nc(NC(CO)c2ccccc2)c2nnn(C(C)C)c2n1` (stereo not given) was > 100 µM; that for `CC(C)n1nnc2c(NCc3cccc(O)c3)nc(N[C@H]3CC[C@H](N)CC3)nc21` was 4.9 µM; that for `O[C@H]1CC[C@H](Nc2nc(Nc3cccc(Cl)c3)c3nnn(Cc4ccccc4)c3n2)CC1` was > 100 µM.
Consider `CCC(CO)Nc1nc(NCc2ccccc2O)c2nnn(C(C)C)c2n1` (stereo not given), for which the IC50 turned out to be 1.2 µM.
The value for `CC(C)n1nnc2c(NCc3ccccc3O)nc(N[C@H]3CC[C@H](N)CC3)nc21` was 16.4 µM.
The value for `CC(C)C(CO)Nc1nc(NCc2ccccc2O)c2nnn(C(C)C)c2n1` (stereo not given) was 0.84 µM; that for `CC(C)C(CO)Nc1nc(NCc2ccccc2)c2nnn(C(C)C)c2n1` (stereo not given) was 7.3 µM.
For the molecule `COc1ccc(CNc2nc(N[C@@H]3CCCC[C@@H]3N)nc3c2nnn3C(C)C)cc1O`, the half-maximal inhibitory concentration (IC50) is 13.7 µM.
Then `CC(C)n1nnc2c(NCc3ccccc3O)nc(N[C@@H]3CCCC[C@@H]3N)nc21`, with 4.1 µM; and `CC(C)n1nnc2c(NCc3ccccc3)nc(N[C@H]3CC[C@H](N)CC3)nc21`, with 11.3 µM.
Molecule `CC(C)n1nnc2c(NCc3ccc(O)cc3)nc(N[C@H]3CC[C@H](N)CC3)nc21` showed an IC50 of 2.8 µM.
The value for `CC(C)n1nnc2c(Nc3cccc(Cl)c3)nc(N[C@H]3CC[C@H](N)CC3)nc21` was 1.1 µM; that for `CCC(CO)Nc1nc(NCc2ccc(OC)c(O)c2)c2nnn(C(C)C)c2n1` (stereo not given) was 2.3 µM.
For `CC(C)C(CO)Nc1nc(Nc2cccc(Cl)c2)c2nnn(C(C)C)c2n1` (stereo not given), the IC50 was determined as 20 µM. This IC50 is about 8.7-fold higher than that of the molecule before.
Turning to `O[C@H]1CC[C@H](Nc2nc(NCC3CCCCC3)c3nnn(Cc4ccccc4)c3n2)CC1`, the IC50 was > 100 µM.
Then `CC(C)C(CO)Nc1nc(NCc2cccc(O)c2)c2nnn(C(C)C)c2n1` (stereo not given), with 8 µM.
The molecule `CCC(CO)Nc1nc(NCc2ccccc2)c2nnn(C(C)C)c2n1` (stereo not given) registered an IC50 of 4.1 µM. This IC50 is about 2-fold lower than that of the molecule before.
Then `CC(C)n1nnc2c(NCc3ccccc3O)nc(NCc3ccccc3O)nc21`, with > 100 µM.
Molecule `CCC(CO)Nc1nc(NCc2cccc(O)c2)c2nnn(C(C)C)c2n1` (stereo not given) yielded an IC50 of 10 µM.

One may read the IC50 as the point on the concentration scale where inhibition reaches its midpoint. A low value points to greater potency in that assay.
